One may read the melting point as the temperature, or range, at which the solid turns liquid.

`CCOc1cc(C=C2C(=O)NC(=O)NC2=O)ccc1O` gave a melting point of 244.7 to 246.1 °C.

In the case of `COc1ccc(C=C2C(=O)NC(=O)NC2=O)cc1O`, the melting point is 279.3 to 281.4 °C.

In turn, `COc1ccc(C=C2C(=O)NC(=O)NC2=O)cc1OC` displayed a melting point of more than 300 °C.

In the case of `COc1ccc(C=C2C(=O)NC(=O)NC2=O)c(OC)c1`, the melting point lay in the range of 291.1 to 291.7 °C.

In turn, `COc1cc(C=C2C(=O)NC(=O)NC2=O)cc(OC)c1OC` came in with a melting point of 274.8 to 275.4 °C.

In turn, `O=C1NC(=S)NC(=O)C1=Cc1ccc(O)cc1O` displayed a melting point of more than 300 °C.

Take `COc1cc(C=C2C(=O)NC(=S)NC2=O)ccc1O`: the melting point was 260.9 to 263.6 °C.

`CCOc1cc(C=C2C(=O)NC(=S)NC2=O)ccc1O` returned a melting point of 285 to 287.3 °C.

In turn, `COc1ccc(C=C2C(=O)NC(=S)NC2=O)cc1O` showed a melting point of 278.9 to 280.5 °C.

Regarding `COc1ccc(C=C2C(=O)NC(=S)NC2=O)cc1OC`, the melting point was in the range of 269.9 to 271.7 °C.

With `COc1ccc(C=C2C(=O)NC(=S)NC2=O)c(OC)c1`, the melting point lay in the range of 294.1 to 295.4 °C.

`O=C1NC(=S)NC(=O)C1=Cc1ccccc1O` came in with a melting point of 250.6 to 251.4 °C.

Regarding `COc1cc(C=C2C(=O)NC(=S)NC2=O)cc(OC)c1OC`, the melting point was in the range of 258.9 to 260.7 °C.

`COc1cc(C=C2C(=O)NC(=S)NC2=O)cc(OC)c1O` had a melting point of more than 300 °C.

`O=C1NC(=O)/C(=C/c2cc(O)cc(O)c2)S1` [Compound 9, (Z)-5-(3,5-dihydroxybenzylidene)thiazolidine-2,4-dione] displayed a melting point of 288.4 to 290.2 °C.

For `COc1ccc(/C=C2\SC(=O)NC2=O)c(OC)c1` [Compound 10, (Z)-5-(2,4-dimethoxybenzylidene)thiazolidine-2,4-dione], the melting point was in the range of 254.7 to 255.6 °C.

Take `COc1cc(/C=C2\SC(=O)NC2=O)cc(OC)c1OC` [Compound 12, (Z)-5-(3,4,5-trimethoxybenzylidene)thiazolidine-2,4-dione]: the melting point was in the range of 179.1 to 181 °C.

`O=C1NC(=O)/C(=C/c2ccc(O)cc2)N1` [Compound 25, (Z)-5-(4-hydroxybenzylidene)imidazolidine-2,4-dione]: the melting point was more than 300 °C.

As for `CCOc1cc(/C=C2\NC(=O)NC2=O)ccc1O` [Compound 28, (Z)-5-(3-ethoxy-4-hydroxybenzylidene)imidazolidine-2,4-dione], the melting point lay in the range of 253 to 255.4 °C.

`COc1ccc(/C=C2\NC(=O)NC2=O)c(OC)c1` [Compound 32, (Z)-5-(2,4-dimethoxybenzylidene)imidazolidine-2,4-dione] returned a melting point of 234.1 to 237.2 °C.

`O=C1NC(=O)/C(=C/c2ccccc2O)N1` [Compound 33, (Z)-5-(2-hydroxybenzylidene)imidazolidine-2,4-dione] displayed a melting point of 265.5 to 268.4 °C.

For the compound `COc1cc(/C=C2\NC(=O)NC2=O)cc(OC)c1OC` [Compound 34, (Z)-5-(3,4,5-trimethoxybenzylidene)imidazolidine-2,4-dione], the melting point lay within 266.3 to 267.2 °C.

Take `COc1cc(/C=C2\CC(=O)NC2=O)ccc1O` [Compound 39, (E)-3-(4-hydroxy-3-methoxybenzylidene)pyrrolidine-2,5-dione]: the melting point fell in the range of 243.5 to 245.7 °C.

For `CCOc1cc(/C=C2\CC(=O)NC2=O)ccc1O` [Compound 40, (E)-3-(3-ethoxy-4-hydroxybenzylidene)pyrrolidine-2,5-dione], the melting point was in the range of 222.3 to 224.1 °C.

In the case of `COc1ccc(/C=C2\CC(=O)NC2=O)cc1` [Compound 42, (E)-3-(4-methoxybenzylidene)pyrrolidine-2,5-dione], the melting point is 243.4 to 245.7 °C.

`COc1ccc(/C=C2\CC(=O)NC2=O)cc1OC` [Compound 43, (E)-3-(3,4-dimethoxybenzylidene)pyrrolidine-2,5-dione]: the melting point lay in the range of 237.1 to 238.4 °C.

`O=C1C/C(=C\c2cc(O)cc(O)c2)C(=O)N1` [Compound 44, (E)-3-(3,5-dihydroxybenzylidene)pyrrolidine-2,5-dione] showed a melting point of 275.2 to 277.8 °C.

In turn, `COc1ccc(/C=C2\CC(=O)NC2=O)c(OC)c1` [Compound 45, (E)-3-(2,4-dimethoxybenzylidene)pyrrolidine-2,5-dione] returned a melting point of 245.7 to 246.6 °C.

Consider `O=C1C/C(=C\c2ccccc2O)C(=O)N1` [Compound 46, (E)-3-(2-hydroxybenzylidene)pyrrolidine-2,5-dione], for which the melting point lay in the range of 271.3 to 272.1 °C.

`COc1cc(/C=C2\CC(=O)NC2=O)cc(OC)c1OC` [Compound 47, (E)-3-(3,4,5-trimethoxybenzylidene)pyrrolidine-2,5-dione] displayed a melting point of 191.2 to 193.6 °C.

`COc1cc(/C=C2\CC(=O)NC2=O)cc(OC)c1O` [Compound 48, (E)-3-(4-hydroxy-3,5-dimethoxybenzylidene)pyrrolidine-2,5-dione] returned a melting point of 236.7 to 237.7 °C.

The compound `COc1ccc(/C=C2\SC(=S)NC2=O)c(OC)c1` [Compound 70, (Z)-5-(2,4-dimethoxybenzylidene)-2-thioxothiazolidin-4-one] gave a melting point of 272.7 to 275.2 °C.

`[H]/N=C1/NC(=O)C(=Cc2ccc(O)cc2)N1C` [Compound 74, (Z)-5-(4-hydroxybenzylidene)-2-imino-1-methylimidazolidin-4-one]: the melting point fell in the range of 285.9 to 288 °C.

Regarding `[H]/N=C1/NC(=O)C(=Cc2ccc(O)c(OC)c2)N1C` [Compound 76, (Z)-5-(4-hydroxy-3-methoxybenzylidene)-2-imino-1-methylimidazolidin-4-one], the melting point lay in the range of 254.2 to 255.6 °C.

Compound `[H]/N=C1/NC(=O)C(=Cc2ccc(O)c(OCC)c2)N1C` [Compound 77, (Z)-5-(3-ethoxy-4-hydroxybenzylidene)-2-imino-1-methylimidazolidin-4-one] gave a melting point of 254.2 to 255.6 °C.

Turning to `[H]/N=C1/NC(=O)C(=Cc2ccc(OC)c(O)c2)N1C` [Compound 78, (Z)-5-(3-hydroxy-4-methoxybenzylidene)-2-imino-1-methylimidazolidin-4-one], the melting point lay within 276.1 to 277.3 °C.

In turn, `COc1ccc(/C=C2/C(=O)NC(=N)N2C)cc1` [Compound 79, (Z)-2-Imino-5-(4-methoxybenzylidene)-1-methylimidazolidin-4-one] returned a melting point of 252.1 to 255 °C.

In turn, `[H]/N=C1/NC(=O)C(=Cc2ccc(OC)c(OC)c2)N1C` [Compound 80, (Z)-5-(3,4-dimethoxybenzylidene)-2-imino-1-methylimidazolidin-4-one] returned a melting point of 257.1 to 259 °C.

For the compound `[H]/N=C1/NC(=O)C(=Cc2ccc(OC)cc2OC)N1C` [Compound 81, (Z)-5-(2,4-dimethoxybenzylidene)-2-imino-1-methylimidazolidin-4-one], the melting point was in the range of 244.6 to 245.6 °C.

In turn, `COc1ccc(/C=C2\NC(=S)NC2=O)cc1` [Compound 104, (Z)-5-(4-methoxybenzylidene)-2-thioxoimidazolidin-4-one] returned a melting point of 266.9 to 267.5 °C.

`COc1ccc(/C=C2\NC(=S)NC2=O)cc1OC` [Compound 105, (Z)-5-(3,4-dimethoxybenzylidene)-2-thioxoimidazolidin-4-one] had a melting point of 236.2 to 238 °C.

Compound `COc1ccc(/C=C2\NC(=S)NC2=O)c(OC)c1` [Compound 107, (Z)-5-(2,4-dimethoxybenzylidene)-2-thioxoimidazolidin-4-one] gave a melting point of 237.1 to 238.6 °C.

As for `COc1cc(/C=C2\NC(=S)NC2=O)cc(OC)c1OC` [Compound 109, (Z)-2-thioxo-5-(3,4,5-trimethoxybenzylidene)imidazolidin-4-one], the melting point lay within 264 to 266.6 °C.

`[H]/N=C1/NC(=O)C(=Cc2ccc(O)c(O)c2)S1` [Compound 112, (Z)-5-(3,4-dihydroxybenzylidene)-2-iminothiazolidin-4-one]: the melting point was more than 300 °C.

For `[H]/N=C1/NC(=O)C(=Cc2ccc(OC)c(OC)c2)S1` [Compound 117, (Z)-5-(3,4-dimethoxybenzylidene)-2-iminothiazolidin-4-one], the melting point lay within 274.2 to 276.3 °C.

Regarding `[H]/N=C1/NC(=O)C(=Cc2cc(O)cc(O)c2)S1` [Compound 118, (Z)-5-(3,5-dihydroxybenzylidene)-2-iminothiazolidin-4-one], the melting point is more than 300 °C.

`[H]/N=C1/NC(=O)C(=Cc2ccc(OC)cc2OC)S1` [Compound 119, (Z)-5-(2,4-dimethoxybenzylidene)-2-iminothiazolidin-4-one] registered a melting point of 249.1 to 250.7 °C.

With `[H]/N=C1/NC(=O)C(=Cc2ccccc2O)S1` [Compound 120, (Z)-5-(2-hydroxybenzylidene)-2-iminothiazolidin-4-one], the melting point fell in the range of 210.1 to 211.5 °C.

As for `COc1cc(/C=C2\SC(=N)NC2=O)cc(OC)c1OC` [Compound 121, (Z)-2-Imino-5-(3,4,5-trimethoxybenzylidene)thiazolidin-4-one], the melting point fell in the range of 253.3 to 254.8 °C.

`[H]/N=C1/NC(=O)C(=Cc2cc(OC)c(O)c(OC)c2)S1` [Compound 122, (Z)-5-(4-hydroxy-3,5-dimethoxybenzylidene)-2-iminothiazolidin-4-one] came in with a melting point of 254.3 to 256.6 °C.

As to `COc1cc(/C=C2\NC(=O)NC2=O)cc(OC)c1O` [Compound 151, (Z)-5-(4-hydroxy-3,5-dimethoxybenzylidene)imidazolidine-2,4-dione], the melting point lay in the range of 266 to 268.5 °C.

The record behind these values is US9896421B2, “Compound having skin-whitening, anti-oxidizing and PPAR activities and medical use thereof” (Pusan National University Industry-University Cooperation …, priority 2011, dated 2018).
